Experimental data reported in publication PMC11872507, “Lasso peptides sviceucin and siamycin I exhibit anti-virulence activity and restore vancomycin effectiveness in vancomycin-resistant pathogens” (iScience, 2025).
Converted amounts (≈) assume the structure as drawn.

Key:
[1] = system: V583 vanSB^S402I; assay: Vancomycin MIC, microdilution; type: cell-based; details: Enterococcus faecalis; vancomycin alone (control)
[2] = system: V583 ΔvanSBmalT::vanR^D53E; assay: Vancomycin MIC, microdilution; type: cell-based; details: Enterococcus faecalis; vancomycin alone (control); phosphomimetic VanR^D53E
Experimental: The MIC of vancomycin was determined by the microdilution method described in the guidelines of the European Committee on Antimicrobial Susceptibility Testing (EUCAST 2024, v14.0 Breakpoint Tables).[58] For enterococci, GM17 medium was used instead of CAMH medium since enterococci cannot degrade starch, the main carbohydrate of MH medium. 2-fold serial dilutions of the tested antibiotic were performed to obtain concentrations ranging from 0.5 to 512 μg/mL. LP were then added to the wells at the desired concentration. The medium was inoculated with a final inoculum of 5 × 10^5 CFU/mL. The MIC is the lowest concentration that prevents visible in vitro growth.

[3] = system: E. faecalis V583; assay: Vancomycin MIC with nanoemulsions; type: cell-based, Enterococcus faecalis; details: with blank NEs
Experimental: The formulation of the nanoemulsions was based on the spontaneous nanoemulsification method previously described by Séguy et al.[41] and transposed to lasso peptides. The present nanoemulsions were developed from anhydrous mixtures composed of excipients already described in the European Pharmacopeia (World Health Organization, 2018) and already proven to be hemocompatible on human whole blood. Monodisperse nanoemulsions could be formulated at a drug payload of 400 μg/mL for siamycin I. At these concentrations, the drug added to the anhydrous mixture during the formulation process appeared to be completely dissolved. After the addition of the aqueous phase, a homogeneous colloidal suspension was observed. The nanoemulsions were characterized in terms of granulometric and physicochemical properties (Table S6). The hydrodynamic diameter, zeta potential, and PDI were not changed relative to the blank nanoemulsions, remaining lower than 0.25, indicating the presence of a monodispersed population.

[4] = system: Svic1 ΔvanB; assay: Vancomycin MIC, microdilution; type: cell-based; details: Enterococcus faecalis; vancomycin alone (control)
[5] = system: Svic1; assay: Quantification of D-Ala-D-Lac muropeptides by LCMS; type: cell-based, Enterococcus faecalis; details: vancomycin alone, 2 μg/mL; means of at least two biological replicates
Experimental: (§1) Extraction of muropeptides was performed as previously described[64] with modifications. Bacteria were cultured overnight in GM17 medium supplemented with 2 μg/mL of vancomycin (Merck, USA), 10 μM of sviceucin, or 2 μM of siamycin I. Bacteria were pelleted by centrifugation for 5 min at 10000 rpm and then resuspended in 1 mL of 0.1 M Tris-HCl (pH 6.8), 0.25% SDS. Samples were boiled for 20 min in a heating block (Biolock Scientific, USA) and then centrifuged for 5 min at 10000 rpm. The pellets were washed twice with 1 mL of cold ultrapure water before sonication for 30 min (Branson 1800 Cleaner, USA). 500 μL of DNase 15 μg/mL and RNase 60 μg/mL (Sigma-Aldrich, USA) were added to each sample then incubated at 37°C for 60 min. […] Pellets were resuspended in 12,5 mM sodium phosphate buffer (pH 5.5), then muropeptides concentration was determined and standardized to an OD578 of 3. […]
(§2) LCMS analysis was performed on an ultra-high performance LC system (Ultimate 3000 RSLC, Thermo Scientific, USA) coupled to a high-resolution electrospray ionization-quadrupole-time of flight mass spectrometer (MaXis II ETD, Bruker Daltonics, USA). […] Mass data were analyzed by Data Analysis 4.4 (Bruker Daltonics, USA). For quantification, the m/z corresponding to singly- and doubly-charged species of monomer, as well as doubly- and triply-charged species of dimers of muropeptides were manually searched. […]

[6] = system: E. faecalis V583; assay: Quantification of D-Ala-D-Lac muropeptides by LCMS; type: cell-based, Enterococcus faecalis; details: vancomycin alone, 2 μg/mL; means of at least two biological replicates
Experimental: as §1, §2

[7] = system: E. faecium 1 231 410; assay: microbe, parasite or virus in culture; type: cell-based, Enterococcus faecium; details: Enterococcus faecium, 1231410, read-out: Vancomycin MIC
[8] = system: vanYB in E. faecalis V583; assay: vanYB expression by RT-qPCR; type: cell-based, Enterococcus faecalis; details: vancomycin 1 μg/mL alone
Experimental: (§3) For gelE gene expression measurements, bacteria were cultured in GM17 medium supplemented with the 1:1 water:methanol formulation or either sviceucin at 10 μM, or siamycin I at 1 μM. Cultures were incubated at 37°C until reaching OD600 of 0.5. For vanY gene expression measurements, bacteria were cultured in GM17 medium supplemented with either vancomycin at 1 μg/mL or sviceucin at 10 μM and vancomycin at 1 μg/mL at 37°C to induce the expression of van genes until reaching OD600 of 0.5. Bacteria were recovered by centrifugation at 4200 RCF for 2 min. Once the supernatant was discarded, the pellets were stored at −80°C. Pellets were resuspended in TE buffer or ML lysis buffer, depending on kit used, and transferred in Lysis Matrix B Tubes (MP Biomedicals, USA) before cell lysis with a FastPrep-24 5G (2 × 40 s at 6 m/s, 5 min on ice in-between cycles) (MP Biomedicals, USA). After bead-beating lysis, RNA extraction was performed using Direct-Zol RNA Miniprep kit (Zymo Research, USA) for gelE gene expression measurements or NucleoSpin^Ⓡ miRNA Miniprep kit (Macherey-Nagel, Germany) for vanY gene expression measurements, according to the manufacturers’ instructions. Retrotranscription was performed using QuantiTect Reverse transcription (QIAGEN, Germany). qPCR on cDNA was performed with GoTaq qPCR (Promega, USA). […] Data were analyzed with CFX Manager software (Biorad, USA).

[9] = system: vanYB in Svic1; assay: vanYB expression by RT-qPCR; type: cell-based, Enterococcus faecalis; details: vancomycin 1 μg/mL alone
Experimental: as §3

[10] = system: E. faecalis V583; assay: microbe, parasite or virus in culture; type: cell-based, Enterococcus faecalis

CN[C@H](CC(C)C)C(=O)N[C@H]1C(=O)N[C@@H](CC(N)=O)C(=O)N[C@H]2C(=O)N[C@H]3C(=O)N[C@H](C(=O)N[C@H](C(=O)O)c4cc(O)cc(O)c4-c4cc3ccc4O)[C@H](O)c3ccc(c(Cl)c3)Oc3cc2cc(c3O[C@@H]2O[C@H](CO)[C@@H](O)[C@H](O)[C@H]2O[C@H]2C[C@](C)(N)[C@H](O)[C@H](C)O2)Oc2ccc(cc2Cl)[C@H]1O [Vancomycin]
MIC [1]: 128 µg/mL (≈ 88.3 µM) | MIC [2]: 32 µg/mL (≈ 22.1 µM) | Vancomycin MIC [3]: 32 | MIC [4]: 2 µg/mL (≈ 1.38 µM) | percentage of muropeptides D-Ala-D-Lac [5]: 62.0% | percentage of muropeptides D-Ala-D-Lac [6]: 48.3% | MIC [7]: 128 µg/mL (≈ 88.3 µM) | vanYB expression induced by vancomycin, in words [8]: strongly induced | vanYB expression induced by vancomycin, in words [9]: strongly induced | MIC ([10]; Enterococcus faecalis, V583, read-out: Vancomycin MIC): 32 µg/mL (≈ 22.1 µM) | Vancomycin MIC ([10]; vancomycin alone (control, 1:1 water:methanol formulation), GM17, 5 × 10^5 CFU/mL, VanB): 32 µg/mL
